Experimental data taken from US20090111736A1, “Orally-Absorbed Solid Dose Formulation for Vancomycin” (SRI International, priority 2007, published 2009).
“And” between values parts separate entries of the source, which are not always exact repeats. Equal entries are not always repeated. Structures can show the parent of a compound that is named as a salt.

System: rat jejunum
Experiment: In vitro mucosal-to-serosal vancomycin transport, modified Ussing chambers, jejunum
Format: in vitro ADME
Conditions: for Ave. Cumulative Amt VCM Released: jejunum
Description: We investigated regional variation in permeation of vancomycin (VCM) across various segments of rat intestine and colon in vitro by mounting isolated segments of rat intestine and colon between horizontal modified Ussing chambers. The effects of drug concentration and of addition of a p-glycoprotein inhibitor or permeation enhancer(s) as formulation additives on VCM permeation were also studied in vitro using segments of rat jejunum.
Methods: A modified Ussing system (Easy mount Ussing system, Physiological Instruments Inc., CA, Item # EM-CSYS-8) with eight sets of chambers was used for all in vitro studies; each set consisted of two parallel diffusion chambers, a heating block for temperature control, needle valves for gas flow adjustment and gas mixing, and Ag/AgCl voltage and current electrodes for measuring transepithelial voltage and for passing current.
Harvesting of required small intestinal or colon segments of a male rat was performed using experimental procedures described in the literature (Gotoh et al., J Biomol Screen (2005) 10:517-23). The harvested segments of small intestine or colon were mounted on sliders placed between the two horizontal chambers of a modified Ussing system.
VCM was dissolved in HEPES buffer pH 7.4 (Table 1) previously saturated with 100% O2 or HEPES buffer containing additives selected from permeation enhancer(s) and/or an efflux transport inhibitor (Table 2) to obtain predetermined concentrations of drug and additive(s).
Drug transport across epithelial membranes of harvested rat small intestine and colon segments, in mucosal-to-serosal (M-to-S) direction, was studied using modified Ussing Chambers. Aliquots of HEPES buffer (5 ml) were initially added to both the mucosal and serosal chambers and allowed to equilibrate for 20 minutes. The HEPES buffer in the mucosal chamber was replaced by a study sample containing VCM alone or VCM and selected additive(s) in HEPES buffer, e.g., 5 mg/mL of VCM dissolved in HEPES buffer containing 10% w/w Labrasol®. Aliquots of 0.5 mL buffer solutions were removed periodically from serosal chambers, and replaced with equal volumes of fresh warm (37±2° C.) HEPES buffer previously saturated with 100% O2. […]
Changes in transepithelial short-circuit current (in micro-Amps) and membrane resistance (in Ohms) as a function of time were monitored continuously during in vitro studies to serve as indicators of tissue viability and drug permeability, respectively. The buffer samples from the receptor chambers were analyzed for VCM content on a high pressure liquid chromatograph (HPLC; Hewlett Packard Model 1100 series).
The analysis of VCM samples was performed using a reverse phase gradient HPLC method, with a Hypersil BDS C18 column, 5 μm, 150×4.6 mm., mobile phase consisting of 5 mM potassium phosphate monobasic in water (pH 3) as solvent A and acetonitrile as solvent B at a flow rate of 1 ml/min (Farin et al., J Pharm Biomed Anal (1998) 18:367-72). The eluant was monitored by a UV/diode array detector at 280 nm.
To compare data obtained from different in vitro experiments, the apparent permeability coefficients were calculated using the equation: […]
Where dQ/dt is the linear appearance rate of mass in receiver compartment, C0 is the initial solute concentration in donor compartment, and A is the surface area (Luo et al., Drug Metab Dispos (2002) 30:763-70).

SMILES: CN[C@H](CC(C)C)C(=O)N[C@H]1C(=O)N[C@@H](CC(N)=O)C(=O)N[C@H]2C(=O)N[C@H]3C(=O)N[C@H](C(=O)N[C@H](C(=O)O)c4cc(O)cc(O)c4-c4cc3ccc4O)[C@H](O)c3ccc(c(Cl)c3)Oc3cc2cc(c3O[C@@H]2O[C@H](CO)[C@@H](O)[C@H](O)[C@H]2O[C@H]2C[C@](C)(N)[C@H](O)[C@H](C)O2)Oc2ccc(cc2Cl)[C@H]1O [Vancomycin hydrochloride]
- increase in M-to-S transport of VCM (0.15 mM Quinidine added to the serosal chamber): 3 fold
- effect on M-to-S transport of VCM (0.15 mM Quinidine in mucosal chamber): increased M-to-S transport of VCM, but to a lesser extent
- effect on in vitro permeation of VCM (1.0 mM sodium decanoate in mucosal chamber): much greater effect
- effect on in vitro permeation of VCM (1.0 mM sodium decanoate in serosal chamber): minimal effect
- effect on M-to-S transport of VCM (bile salts at 20% w/w in mucosal chamber): greatly enhanced M-to-S transport
- Ave. Cumulative Amt VCM Released (1.0 mM sodium decanoate in mucosal chamber, 0.5 hr): 2.24 ± 3.17 µg
- Ave. Cumulative Amt VCM Released (1.0 mM sodium decanoate in mucosal chamber, 1.0 hr): 4.52 ± 6.39 µg
- Ave. Cumulative Amt VCM Released (1.0 mM sodium decanoate in mucosal chamber, 1.5 hr): 11.11 ± 10.44 µg
- Ave. Cumulative Amt VCM Released (1.0 mM sodium decanoate in mucosal chamber, 2.0 hr): 19.25 ± 14.42 µg
- Ave. Cumulative Amt VCM Released (1.0 mM sodium decanoate in mucosal chamber, 2.5 hr): 34.10 ± 8.84 µg
- Ave. Cumulative Amt VCM Released (1.0 mM sodium decanoate in serosal chamber, 0.5 hr): 0.00 ± 0.00 µg
- Ave. Cumulative Amt VCM Released (1.0 mM sodium decanoate in serosal chamber, 1.0 hr): 0.91 ± 1.28 µg
- Ave. Cumulative Amt VCM Released (1.0 mM sodium decanoate in serosal chamber, 1.5 hr): 3.91 ± 0.70 µg
- Ave. Cumulative Amt VCM Released (1.0 mM sodium decanoate in serosal chamber, 2.0 hr): 6.91 ± 0.41 µg
- Ave. Cumulative Amt VCM Released (1.0 mM sodium decanoate in serosal chamber, 2.5 hr): 10.60 ± 0.28 µg
- Ave. Cumulative Amt VCM Released (5 mg/ml vancomycin in HEPES buffer without enhancer, 0.5 hr, hydrochloride): 0.00 ± 0.00 µg and 0.00 ± 0.0 µg
- Ave. Cumulative Amt VCM Released (5 mg/ml vancomycin in HEPES buffer without enhancer, 1.0 hr): 1.06 ± 0.95 µg
- Ave. Cumulative Amt VCM Released (5 mg/ml vancomycin in HEPES buffer without enhancer, 1.5 hr): 3.73 ± 0.61 µg
- Ave. Cumulative Amt VCM Released (5 mg/ml vancomycin in HEPES buffer without enhancer, 2.0 hr): 6.94 ± 1.07 µg
- Ave. Cumulative Amt VCM Released (5 mg/ml vancomycin in HEPES buffer without enhancer, 2.5 hr): 11.08 ± 1.08 µg
- Ave. Cumulative Amt VCM Released (5 mg/ml, 0.15 mM Quinidine in mucosal chamber, 0.5 hr): 0.00 ± 0.00 µg
- Ave. Cumulative Amt VCM Released (5 mg/ml, 0.15 mM Quinidine in mucosal chamber, 1.0 hr): 1.72 ± 2.44 µg
- Ave. Cumulative Amt VCM Released (5 mg/ml, 0.15 mM Quinidine in mucosal chamber, 1.5 hr): 4.91 ± 3.98 µg
- Ave. Cumulative Amt VCM Released (5 mg/ml, 0.15 mM Quinidine in mucosal chamber, 2.0 hr): 9.00 ± 5.72 µg
- Ave. Cumulative Amt VCM Released (5 mg/ml, 0.15 mM Quinidine in mucosal chamber, 2.5 hr): 14.14 ± 6.95 µg
- Ave. Cumulative Amt VCM Released (5 mg/ml, 0.15 mM Quinidine in serosal chamber, 0.5 hr): 1.87 ± 0.57 µg
- Ave. Cumulative Amt VCM Released (5 mg/ml, 0.15 mM Quinidine in serosal chamber, 1.0 hr): 8.27 ± 3.06 µg
- Ave. Cumulative Amt VCM Released (5 mg/ml, 0.15 mM Quinidine in serosal chamber, 1.5 hr): 16.77 ± 7.45 µg
- Ave. Cumulative Amt VCM Released (5 mg/ml, 0.15 mM Quinidine in serosal chamber, 2.0 hr): 26.75 ± 11.57 µg
- Ave. Cumulative Amt VCM Released (5 mg/ml, 0.15 mM Quinidine in serosal chamber, 2.5 hr): 38.96 ± 12.27 µg
- Ave. Cumulative Amt VCM Released (5 mg/ml, slider area 0.5 cm^2, 20% w/w bile salt, 0.5 hr): 0.00 ± 0.00 µg
- Ave. Cumulative Amt VCM Released (5 mg/ml, slider area 0.5 cm^2, 20% w/w bile salt, 1.0 hr): 5.40 ± 2.26 µg
- Ave. Cumulative Amt VCM Released (5 mg/ml, slider area 0.5 cm^2, 20% w/w bile salt, 1.5 hr): 18.19 ± 7.43 µg
- Ave. Cumulative Amt VCM Released (5 mg/ml, slider area 0.5 cm^2, 20% w/w bile salt, 2.0 hr): 37.58 ± 9.54 µg
- Ave. Cumulative Amt VCM Released (5 mg/ml, slider area 0.5 cm^2, 20% w/w bile salt, 2.5 hr): 66.39 ± 18.91 µg
- Ave. Cumulative Amt VCM Released (5 mg/ml, slider area 0.5 cm^2, No Q (quinidine study), 0.5 hr): 0.00 ± 0.00 µg
- Ave. Cumulative Amt VCM Released (5 mg/ml, slider area 0.5 cm^2, No Q (quinidine study), 1.0 hr): 1.66 ± 0.43 µg
- Ave. Cumulative Amt VCM Released (5 mg/ml, slider area 0.5 cm^2, No Q (quinidine study), 1.5 hr): 4.34 ± 1.57 µg
- Ave. Cumulative Amt VCM Released (5 mg/ml, slider area 0.5 cm^2, No Q (quinidine study), 2.0 hr): 8.73 ± 2.92 µg
- Ave. Cumulative Amt VCM Released (5 mg/ml, slider area 0.5 cm^2, No Q (quinidine study), 2.5 hr): 14.24 ± 4.56 µg
- Ave. Cumulative Amt VCM Released (10 mg/ml in HEPES buffer without enhancer, 0.5 hr): 0.00 ± 0.0 µg
- Ave. Cumulative Amt VCM Released (10 mg/ml in HEPES buffer without enhancer, 1.0 hr): 2.76 ± 0.69 µg
- Ave. Cumulative Amt VCM Released (10 mg/ml in HEPES buffer without enhancer, 1.5 hr): 6.88 ± 0.98 µg
- Ave. Cumulative Amt VCM Released (10 mg/ml in HEPES buffer without enhancer, 2.0 hr): 12.86 ± 1.23 µg
- Ave. Cumulative Amt VCM Released (10 mg/ml in HEPES buffer without enhancer, 2.5 hr): 20.77 ± 1.90 µg
- Ave. Cumulative Amt VCM Released (25 mg/ml in HEPES buffer without enhancer, 0.5 hr): 0.00 ± 0.0 µg
- Ave. Cumulative Amt VCM Released (25 mg/ml in HEPES buffer without enhancer, 1.0 hr): 2.90 ± 1.82 µg
- Ave. Cumulative Amt VCM Released (25 mg/ml in HEPES buffer without enhancer, 1.5 hr): 7.99 ± 5.71 µg
- Ave. Cumulative Amt VCM Released (25 mg/ml in HEPES buffer without enhancer, 2.0 hr): 21.56 ± 3.84 µg
- Ave. Cumulative Amt VCM Released (25 mg/ml in HEPES buffer without enhancer, 2.5 hr): 50.91 ± 6.58 µg
